According to US8796460B2, “Compounds for inhibiting KSP kinesin activity” (Mercky Sharp & Dohme Corp., priority 2007, dated 2014):

test system: HCT116 colon cancer cells; experiment: KSP Cellular Assay (percent of cells staining positive for Phos-Histone H3 / Phos-MPM2); format: cell-based; settings: Homo sapiens, HCT-116, 16 h, Table 101; HCT116 cells, 16 hours with drug; read-out: ED50 (nM) Range
Protocol: HCT116 colon cancer cells were grown in DMEM:F12 media with 10% heat inactivated FBS at 37 degrees with 5% CO2. Cells were plated at 7,500 cells per well in PDL coated 384-well tissue culture plates. 6 hours later media was removed and new media containing drug was added. Cells were incubated with drug for 16 hours. All further steps were performed at room temperature in the dark. Cells were fixed with 25 ul/well Prefer fixation solution plus 250 nM Hoechst dye and incubated for 30 minutes. The fixation solution was removed and cells were washed with PBS. Cells were then permeabilized with 25 ul/well 0.2% Triton-X in PBS and incubated for 10 minutes. Cells were washed with PBS and then incubated with 25 ul/well PBS containing 3% FBS for 30 minutes. Cells were then stained overnight at 4 degrees with 25 ul/well antibody solution in PBS plus 3% FBS. Antibodies used were Phos-Histone H3 (ser10)-Alexa Flur 488 Conjugate and Phos-MPM2 Texas Red Conjugate. Cells were washed with PBS and then immunofluorescence images captured with HT Pathway microscope. The percent of cells staining positive was calculated and EC50 values for the compounds of the invention that were tested were determined using Excel XLfit.
EC50 Determinations: Dose-response curves were plotted from inhibition data generated each in duplicate, from 8 point serial dilutions of inhibitory compounds. Concentration of compound was plotted against enzyme activity (OD reading). To generate EC50 values, the dose-response curves were then fitted to a standard sigmoidal curve and EC50 values were derived by nonlinear regression analysis.

SMILES	EC50 [nM]
CC(=O)N1N=C(c2cc(F)ccc2F)SC12CCS(=O)(=O)c1ccccc12 (stereo not drawn) [compound 109]	> 1000
CC(=O)N1N=C(c2cc(F)ccc2F)SC12CCCc1ccccc12 (stereo not drawn) [compound 101]	> 1000
CC(=O)N1N=C(c2cc(F)ccc2F)SC12C(=O)Nc1ccccc12 (stereo not drawn) [compound 127]	> 1000
CC(=O)N1N=C(c2cc(F)ccc2F)SC12CCCc1cccnc12 (stereo not drawn) [compound 124]	> 1000
CC(=O)N1N=C(c2cc(F)ccc2F)SC12CCOc1ccc(F)cc12 (stereo not drawn) [compound 116]	≤ 500
CC(=O)N1N=C(c2cc(F)ccc2F)S[C@]12CCc1ccccc12 [compound 119]	500 to 1000
CC(=O)N1N=C(c2cc(F)ccc2F)SC12CCN(C)c1ccccc12 (stereo not drawn) [compound 111]	> 1000
CC(=O)N1N=C(c2cc(F)ccc2F)SC12CCSc1ccccc12 (stereo not drawn) [compound 104]	> 1000
CC(=O)N1N=C(c2cc(F)ccc2F)S[C@@]12CCc1ccccc12 [compound 118]	≤ 500
CC(=O)N1C(=O)C2(SC(c3cc(F)ccc3F)=NN2C(C)=O)c2ccccc21 (stereo not drawn) [compound 128]	> 1000
CC(=O)N1CCC2(SC(c3cc(F)ccc3F)=NN2C(C)=O)c2ccccc21 (stereo not drawn) [compound 112]	> 1000

same assay, conditions: Homo sapiens, HCT-116, 16 h, Table 401; HCT116 cells, 16 hours with drug; read-out: ED50 (nM) Range

SMILES	EC50 [nM]
CC(C)[C@H](O)C(=O)N1N=C(c2cc(F)ccc2F)SC12CCCc1ccccc12 (stereo partly drawn) [compound 402]	> 1000
N[C@H](C(=O)N1N=C(c2cc(F)ccc2F)SC12CCc1ccccc12)C1CC1 (stereo partly drawn) [compound 420]	> 1000
O=C(Cc1ccncc1)N1N=C(c2cc(F)ccc2F)SC12CCOc1ccccc12 (stereo not drawn) [compound 485]	≤ 500
NCC(=O)N1N=C(c2cc(F)ccc2F)SC12CCOc1ccccc12 (stereo not drawn) [compound 469]	> 1000
N[C@H](C(=O)N1N=C(c2cc(F)ccc2F)SC12CCSc1ccccc12)C1CC1 (stereo partly drawn) [compound 415]	> 1000
O=C([C@@H]1CCCN1)N1N=C(c2cc(F)ccc2F)SC12CCSc1ccccc12 (stereo partly drawn) [compound 413]	> 1000
O=C(CCCN1CCOCC1)N1N=C(c2cc(F)ccc2F)SC12CCOc1ccccc12 (stereo not drawn) [compound 495]	> 500
CO[C@@H](C)C(=O)N1N=C(c2cc(F)ccc2F)SC12CCOc1ccccc12 (stereo partly drawn) [compound 435]	500 to 1000
O=C(CC1CCNCC1)N1N=C(c2cc(F)ccc2F)SC12CCOc1ccccc12 (stereo not drawn) [compound 486]	500 to 1000
N[C@H]1C[C@@H](C(=O)N2N=C(c3cc(F)ccc3F)SC23CCOc2ccccc23)C1 (stereo partly drawn) [compound 499]	500 to 1000
O=C(C1CCCNC1)N1N=C(c2cc(F)ccc2F)SC12CCCc1ccccc12 (stereo not drawn) [compound 416]	> 1000
CN(C)CCCC(=O)N1N=C(c2cc(F)ccc2F)SC12CCc1ccccc12 (stereo not drawn) [compound 438]	≤ 500
O=C(C(F)F)N1N=C(c2cc(F)ccc2F)SC12CCOc1ccccc12 (stereo not drawn) [compound 471]	≤ 500
CC(C)(C)C(=O)N1N=C(c2cc(F)ccc2F)SC12CCOc1ccccc12 (stereo not drawn) [compound 430]	> 1000
NC(=O)CCC(=O)N1N=C(c2cc(F)ccc2F)SC12CCc1ccccc12 (stereo not drawn) [compound 444]	≤ 500
N[C@H](C(=O)N1N=C(c2cc(F)ccc2F)SC12CCCc1ccsc12)C1CC1 (stereo partly drawn) [compound 428]	> 1000
CC(C)[C@H](O)C(=O)N1N=C(c2cc(F)ccc2F)SC12CCCc1ccsc12 (stereo partly drawn) [compound 424]	> 1000
CC(N)CCC(=O)N1N=C(c2cc(F)ccc2F)SC12CCc1ccccc12 (stereo not drawn) [compound 452]	≤ 500
O=C(C1CCNCC1)N1N=C(c2cc(F)ccc2F)SC12CCCc1ccccc12 (stereo not drawn) [compound 401]	> 1000
O=C(CCC1CCCNC1)N1N=C(c2cc(F)ccc2F)SC12CCOc1ccccc12 (stereo not drawn) [compound 482]	≤ 500
NC1CCC(C(=O)N2N=C(c3cc(F)ccc3F)SC23CCc2ccccc23)C1 (stereo not drawn) [compound 440]	≤ 500

same assay, conditions: Homo sapiens, HCT-116, 16 h, Table 701; HCT116 cells, 16 hours with drug; read-out: EC50 (nM) Range

SMILES	EC50 [nM]
NCCN1N=C(c2cc(F)ccc2F)SC12CCOc1ccccc12 (stereo not drawn) [compound 701]	> 1000
CC(C)N1N=C(c2cc(F)ccc2F)SC12CCOc1ccccc12 (stereo not drawn) [compound 702]	> 1000
COCCN1N=C(c2cc(F)ccc2F)SC12CCOc1ccccc12 (stereo not drawn) [compound 704]	> 1000

same assay, conditions: Homo sapiens, HCT-116, 16 h, Table 801; HCT116 cells, 16 hours with drug; read-out: EC50 (nM) Range

SMILES	EC50 [nM]
CC(=O)N1N=C(c2cc(F)ccc2F)S[C@]12c1cc(F)ccc1OC[C@H]2CCN [compound 803]	≤ 500
CC(=O)N1N=C(c2cc(F)ccc2F)S[C@@]12c1cc(F)ccc1OC[C@H]2CCN [compound 801]	≤ 500
CC(=O)N1N=C(c2cc(F)ccc2F)S[C@]12c1cccc(F)c1OC[C@@H]2CCN [compound 810]	> 1000
CC(=O)N1N=C(c2cc(F)ccc2F)S[C@]12c1ccccc1OC[C@H]2CCN [compound 817]	≤ 500

same assay, conditions: Homo sapiens, HCT-116, 16 h, Table 1201 (Example 1201); HCT116 cells, 16 hours with drug; read-out: EC50 (nM) Range

SMILES	EC50 [nM]
CCNCC[C@@H]1COc2ccccc2[C@@]12SC(c1cc(F)ccc1F)=NN2C(C)=O [compound 1202]	≤ 500

same assay, conditions: Homo sapiens, HCT-116, 16 h, table of Example 901; HCT116 cells, 16 hours with drug; read-out: EC50 (nM) Range

SMILES	EC50 [nM]
CC(=O)N1N=C(c2cc(F)ccc2F)S[C@]12c1ccccc1C[C@@H]2CC#N [compound 907]	≤ 500
CC(=O)N1N=C(c2cc(F)ccc2F)S[C@@]12c1ccccc1OC[C@H]2CC#N [compound 903]	≤ 500
CC(=O)N1N=C(c2cc(F)ccc2F)S[C@]12c1ccccc1OC[C@@H]2CC#N [compound 905]	> 1000

same assay, conditions: Homo sapiens, HCT-116, 16 h, table of Example 1001; HCT116 cells, 16 hours with drug; read-out: EC50 (nM) Range

SMILES	EC50 [nM]
CC(=O)N1N=C(c2cc(F)ccc2F)S[C@]12c1ccccc1OC[C@@H]2CCCO (single isomer, unassigned) [compound 1003]	> 1000

same assay, conditions: Homo sapiens, HCT-116, 16 h, table of Example 1801 (headed Table 1201); HCT116 cells, 16 hours with drug; read-out: EC50 (nM) Range

SMILES	EC50 [nM]
CC(=O)N1N=C(c2ccccc2)S[C@]12c1ccccc1OC[C@@H]2CCN [compound 1809]	> 1000
CC(=O)N1N=C(c2ccccc2F)S[C@]12c1ccccc1OC[C@@H]2CCN [compound 1804]	> 1000
CC(=O)N1N=C(c2ccc(F)cc2F)S[C@]12c1cc(F)ccc1OC[C@@H]2CCN [compound 1822]	> 1000
CC(=O)N1N=C(c2cc(Cl)ccc2F)S[C@]12c1ccccc1OC[C@@H]2CCN [compound 1805]	> 1000
CC(=O)N1N=C(c2cccc(F)c2)S[C@]12c1ccccc1OC[C@@H]2CCN [compound 1811]	> 1000
CC(=O)N1N=C(c2ccccc2F)S[C@@]12c1ccccc1OC[C@H]2CCN [compound 1802]	≤ 500
CC(=O)N1N=C(c2cc(Cl)ccc2F)S[C@@]12c1ccccc1OC[C@H]2CCN [compound 1803]	≤ 500
CC(=O)N1N=C(c2ccc(F)cc2F)S[C@@]12c1ccccc1OC[C@H]2CCN (single isomer, unassigned) [compound 1801]	≤ 500
CC(=O)N1N=C(c2ccc(F)c(F)c2)S[C@]12c1cc(F)ccc1OC[C@@H]2CCN [compound 1823]	> 1000
CC(=O)N1N=C(c2cccc(C(F)(F)F)c2)S[C@@]12c1ccccc1OC[C@H]2CCN [compound 1814]	≤ 500

same assay, conditions: Homo sapiens, HCT-116, 16 h, table of Example 1901; HCT116 cells, 16 hours with drug; read-out: EC50 (nM) Range

SMILES	EC50 [nM]
COCCOCC(=O)N1N=C(c2cc(F)ccc2F)S[C@]12c1cc(F)ccc1OC[C@@H]2CCN [compound 1905]	> 1000
CO[C@@H](C)C(=O)N1N=C(c2cc(F)ccc2F)S[C@]12c1cc(F)cc(F)c1OC[C@@H]2CCN [compound 1908]	> 1000

same assay, conditions: Homo sapiens, HCT-116, 16 h, table of Example 2201; HCT116 cells, 16 hours with drug; read-out: EC50 (nM) Range

SMILES	EC50 [nM]
NCC[C@H]1COc2ccccc2[C@]12SC(c1cc(F)ccc1F)=NN2C(=O)N1CCOCC1 [compound 2206]	> 1000

same assay, conditions: Homo sapiens, HCT-116, 16 h, table of Example 2301; HCT116 cells, 16 hours with drug; read-out: EC50 (nM) Range

SMILES	EC50 [nM]
CC(=O)N1N=C(c2cc(F)ccc2F)SC12c1ccccc1OCC2CCO (stereo not drawn) [compound 2301]	≤ 500

same assay, conditions: Homo sapiens, HCT-116, 16 h, table of Example 2401; HCT116 cells, 16 hours with drug; read-out: EC50 (nM) Range

SMILES	EC50 [nM]
CC(=O)N1N=C(c2cc(F)ccc2F)S[C@@]12CCNc1ccccc12 (single isomer, unassigned) [compound 2401]	≤ 500

same assay, conditions: Homo sapiens, HCT-116, 16 h, table of Example 2701; HCT116 cells, 16 hours with drug; read-out: EC50 (nM) Range

SMILES	EC50 [nM]
CC(=O)N1N=C(c2cc(F)ccc2F)S[C@]12c1ccccc1NC[C@H]2CCN [compound 2701]	≤ 500

same assay, conditions: Homo sapiens, HCT-116, 16 h, table of Example 2801; HCT116 cells, 16 hours with drug; read-out: EC50 (nM) Range

SMILES	EC50 [nM]
CC(=O)N1N=C(c2cc(F)ccc2F)S[C@]12c1ccccc1NC[C@H]2CCN [compound 2801]	≤ 500

same assay, conditions: Homo sapiens, HCT-116; table of Example 2001; HCT116 cells, 16 hours with drug; read-out: EC50 (nM) Range

SMILES	EC50 [nM]
NCC[C@H]1COc2ccccc2[C@]12SC(c1cc(F)ccc1F)=NN2C(=O)CF [compound 2001]	≤ 500
NCC[C@@H]1COc2ccccc2[C@@]12SC(c1cc(F)ccc1F)=NN2C(=O)CF [compound 2002]	≤ 500
